# Test results: patent publication US8889391B1 (Cargill, Incorporated, priority 2006, dated 2014)
# Read-outs that look alike come from different tables or passages of the source.
# Experiments:
# [1] = target: BAAT-3-HP dehydrogenase system: Streptomyces avermitilis BAAT variant BAAT5-9 (P3H, S24T, D110N, F113L, A133T), SEQ ID NO: 19, coupled with P. putida 3-HP dehydrogenase (PpmmsB31), SEQ ID NO: 27 (Streptomyces avermitilis, UniProt Q82ER2, D110N/F113L/P3H/S24T); test: biochemical; details: pH 8, read-out: reduction of activity of the BAAT-3-HP dehydrogenase system
# Protocol: The effect of acetate on the in vitro biological activity of BAAT enzymes in cell extracts was also measured using a coupled assay in which the malonyl semialdehyde product of the reaction catalyzed by BAAT was reduced by a 3-HP dehydrogenase. An extract of cells carrying the integrated BAAT5-9/PpmmsB31 was made by resuspending cells collected by centrifugation with Bugbuster (EMD/Novagen, Madison Wis.) as described by the manufacturer. […] The progress of the reaction was monitored as the decrease in A340 due to oxidation of the NADH. The effect of acetate or pyruvate was determined by adding up to 20 mM of either compound (as the neutral Na^+ salt).
# [2] = system: BAAT (BAAT5-9) in E. coli 11303 Δpta ΔadhE ΔfrdABCD ΔldhA Δpan(C-D) ΔpoxB INT(BAAT5-9/PpmmsB31) carrying pCEC/SapanD; test: microbe, parasite or virus in culture; details: for inhibition at 20000 µM / inhibition at 100000 µM: Escherichia coli
# Protocol: A culture of E. coli 11303 Δpta ΔadhE ΔfrdABCD ΔldhA Δpan(C-D) ΔpoxB INT(BAAT5-9/PpmmsB31) carrying the vector pCEC/SapanD was grown in LB media with chloramphenicol at 30° C. This culture was used to inoculate 20 mL modified Overnight Express media (Novagen) to an initial OD600 of 0.05 in a 125 mL flask. Modification to the media included the replacement of Solution 1 with glucose at a concentration of 0.1% and arabinose at 2%, and addition of 20 uM Ca^2+ pantothenate, 25 ug/mL chloramphenicol, 100 uM pyridoxine-HCl and 1 mM IPTG. […] Glucose biotransformation medium consisted of M9 salts, 100 mM MOPS pH 8, 1% glucose, 500 uM IPTG, and 50 uM pyridoxine-HCl.
# For aerobic biotransformations, 900 uL of the resuspended culture was aliquoted to a 14 mL Falcon tube and the volume was brought to 1 mL with water and/or sodium acetate (pH 7). For anaerobic biotransformations, 1.35 mL of the resuspended culture was aliquoted to a 1.8 mL glass vial and the volume was brought to 1.5 mL with water and/or sodium acetate(pH 7). Final concentrations of sodium acetate added were 0, 20 mM, and 100 mM, and biotransformation incubations were at 30° C. with shaking at 225 rpm. […] Culture supernatants were acidified with 0.05 volumes of 90% formic acid, centrifuged, filtered, and analyzed for 3-HP production as described in Example 8.
# O=CCC(=O)O = test: purified protein, by the assay type; details: other: purified enzyme; NADH is the preferred reductant
# [3] = substrate: O=CCC(=O)O; test: ydfG dehydrogenase kinetics, purified enzyme; assay type: biochemical, E. coli; details: other: purified enzyme; NADPH is the only cofactor used; 58.0 °C
# Protocol: The ydfG gene was cloned into the pET28b vector (Novagen, Madison, Wis.) to allow purification and kinetic studies on purified protein. The primers used for this cloning had restriction sites added to allow cloning into NdeI and BamHI sites. […] (SEQ ID NO: 32) and […] (SEQ ID NO: 33). Fragment amplification was performed using Pfu DNA polymerase to minimize amplification errors, and used an annealing temperature of 58° C. A PCR product band of approximately 750 bp was gel-purified, digested with NdeI and BamHI, and ligated, using an NEB Quick Ligation method (New England BioLabs, Waverly Mass.), into pET28B vector that had been digested with the same enzymes. The ligation reaction was transformed into E. coli Electromax™ DH10B™ cells and plated on LB medium containing 25 μg/ml kanamycin. Plasmid DNA from a colony showing the correct insert size was sequenced and shown to be identical to the ydfG sequence from E. coli MG1655.
# [4] = substrate: NCCC(=O)O; test: purified protein, by the assay type; assay type: biochemical, Streptomyces avermitilis; details: other: pH 8.0, 10 mM alpha-ketoglutarate, 25° C.
# Protocol: Incubations were carried out at 25° C., and aliquots of 0.05 mL were removed at intervals of 30 seconds and added to 0.15 mL of reaction quench buffer (50% formic acid/50% 50 mM HEPPS pH 8). L-glutamate was determined by high-pressure ion exchange chromatography on an AMINOSep-511 column (Transgenomic) developed using mobile phases of pH 3.28 and pH 7.48 buffers from Pickering, followed by post-column derivatization with O-phthalaldehyde and fluorometric detection.
# [5] = substrate: NCCC(=O)O; test: purified protein, by the assay type; details: other: pH 8.0, 10 mM alpha-ketoglutarate, 25° C.
# [6] = read-out: reduction in 3-HP from beta-alanine
# [7] = read-out: reduction in 3-HP from glucose
molecule,measurement,setting,value
CC(=O)O [acetate],inhibition at 10000 µM,[1],~50%
same,inhibition at 20000 µM,[2]; [6],22%
same,inhibition at 100000 µM,[2]; [6],47%
same,inhibition at 20000 µM,[2]; [7],28%
same,inhibition at 100000 µM,[2]; [7],52%
same,reduction in 3-HP,"[2]; anaerobic conditions, acetate added (20 mM and 100 mM)",8-29%
CC(=O)C(=O)O [pyruvate],inhibition at 10000 µM,[1],~50%
"Pseudomonas aeruginosa 3-HP dehydrogenase (PammsB), SEQ ID NO: 21 (Pseudomonas aeruginosa PAO1)",Km,O=CCC(=O)O,4.5 mM
"E. coli ydfG protein, SEQ ID NO: 31 (Escherichia coli K-12) (protein) MIVLVTGATAGFGECITRRFIQQGHKVIATGRRQERLQELKDELGDNLYIAQLDVRNRAAIEEMLASLPAEWCNIDILVNNAGLALGMEPAHKASVEDWETMIDTNNKGLVYMTRAVLPGMVERNHGHIINIGSTAGSWPYAGGNVYGATKAFVRQFSLNLRTDLHGTAVRVTDIEPGLVGGTEFSNVRFKGDDGKAEKTYQNTVALTPEDVSEAVWWVSTLPAHVNINTLEMMPVTQSYAGLNVHRQ",Km,[3],3.7 mM
"Streptomyces avermitilis BAAT variant BAAT3ML (P3H, S24T, F113L, A133T), SEQ ID NO: 17 (Streptomyces avermitilis MA-4680 = NBRC 14893; F113L/P3H/S24T) (protein) MTHQPNPQVGAAVKAADRAHVFHTWSAQELIDPLAVAGAEGSYFWDYDGRRYLDFTSGLVFTNIGYQHPKVVAAIQEQAASLTTFAPAFAVEARSEAARLIAERTPGDLDKILFTNGGADAIEHAVRMARIHTGRPKVLSAYRSYHGGTQQAVNITGDPRRWASDSASAGVVHFWAPYLYRSRFYAETEQQECERALEHLETTIAFEGPGTIAAIVLETVPGTAGIMVPPPGYLAGVRELCDKYGIVFVLDEVMAGFGRTGEWFAADLFDVTPDLMTFAKGVNSGYVPLGGVAISGKIAETFGKRAYPGGLTYSGHPLACAAAVATINVMAEEGVVENAANLGARVIEPGLRELAERHPSVGEVRGVGMFWALELVKDRETREPLVPYNAAGEANAPMAAFGAAAKANGLWPFINMNRTHVVPPCNVTEAEAKEGLAALDAALSVADEYTV",Km,[4],21 mM
"Streptomyces avermitilis BAAT variant BAAT5-9 (P3H, S24T, D110N, F113L, A133T), SEQ ID NO: 19 (Streptomyces avermitilis MA-4680 = NBRC 14893; … (protein) MTHQPNPQVGAAVKAADRAHVFHTWSAQELIDPLAVAGAEGSYFWDYDGRRYLDFTSGLVFTNIGYQHPKVVAAIQEQAASLTTFAPAFAVEARSEAARLIAERTPGDLNKILFTNGGADAIEHAVRMARIHTGRPKVLSAYRSYHGGTQQAVNITGDPRRWASDSASAGVVHFWAPYLYRSRFYAETEQQECERALEHLETTIAFEGPGTIAAIVLETVPGTAGIMVPPPGYLAGVRELCDKYGIVFVLDEVMAGFGRTGEWFAADLFDVTPDLMTFAKGVNSGYVPLGGVAISGKIAETFGKRAYPGGLTYSGHPLACAAAVATINVMAEEGVVENAANLGARVIEPGLRELAERHPSVGEVRGVGMFWALELVKDRETREPLVPYNAAGEANAPMAAFGAAAKANGLWPFINMNRTHVVPPCNVTEAEAKEGLAALDAALSVADEYTV",Km,[4],25 mM
"Streptomyces avermitilis beta-alanine/alpha-ketoglutarate aminotransferase (BAAT), wild type, SEQ ID NO: 4 (Streptomyces avermitilis MA-4680 = NBRC 14893) (protein) MTPQPNPQVGAAVKAADRAHVFHSWSAQELIDPLAVAGAEGSYFWDYDGRRYLDFTSGLVFTNIGYQHPKVVAAIQEQAASLTTFAPAFAVEARSEAARLIAERTPGDLDKIFFTNGGADAIEHAVRMARIHAGRPKVLSAYRSYHGGTQQAVNITGDPRRWASDSASAGVVHFWAPYLYRSRFYAETEQQECERALEHLETTIAFEGPGTIAAIVLETVPGTAGIMVPPPGYLAGVRELCDKYGIVFVLDEVMAGFGRTGEWFAADLFDVTPDLMTFAKGVNSGYVPLGGVAISGKIAETFGKRAYPGGLTYSGHPLACAAAVATINVMAEEGVVENAANLGARVIEPGLRELAERHPSVGEVRGVGMFWALELVKDRETREPLVPYNAAGEANAPMAAFGAAAKANGLWPFINMNRTHVVPPCNVTEAEAKEGLAALDAALSVADEYTV",Km,[5],2.5 mM
"Streptomyces avermitilis BAAT variant BAAT1 (S24T), SEQ ID NO: 6 (Streptomyces avermitilis MA-4680 = NBRC 14893; S24T) (protein) MTPQPNPQVGAAVKAADRAHVFHTWSAQELIDPLAVAGAEGSYFWDYDGRRYLDFTSGLVFTNIGYQHPKVVAAIQEQAASLTTFAPAFAVEARSEAARLIAERTPGDLDKIFFTNGGADAIEHAVRMARIHAGRPKVLSAYRSYHGGTQQAVNITGDPRRWASDSASAGVVHFWAPYLYRSRFYAETEQQECERALEHLETTIAFEGPGTIAAIVLETVPGTAGIMVPPPGYLAGVRELCDKYGIVFVLDEVMAGFGRTGEWFAADLFDVTPDLMTFAKGVNSGYVPLGGVAISGKIAETFGKRAYPGGLTYSGHPLACAAAVATINVMAEEGVVENAANLGARVIEPGLRELAERHPSVGEVRGVGMFWALELVKDRETREPLVPYNAAGEANAPMAAFGAAAKANGLWPFINMNRTHVVPPCNVTEAEAKEGLAALDAALSVADEYTV",Km,[4],7.3 mM
"Streptomyces avermitilis BAAT variant BAAT3 (S24T, F113L, A133T), SEQ ID NO: 12 (Streptomyces avermitilis MA-4680 = NBRC 14893; F113L/S24T) (protein) MTPQPNPQVGAAVKAADRAHVFHTWSAQELIDPLAVAGAEGSYFWDYDGRRYLDFTSGLVFTNIGYQHPKVVAAIQEQAASLTTFAPAFAVEARSEAARLIAERTPGDLDKILFTNGGADAIEHAVRMARIHTGRPKVLSAYRSYHGGTQQAVNITGDPRRWASDSASAGVVHFWAPYLYRSRFYAETEQQECERALEHLETTIAFEGPGTIAAIVLETVPGTAGIMVPPPGYLAGVRELCDKYGIVFVLDEVMAGFGRTGEWFAADLFDVTPDLMTFAKGVNSGYVPLGGVAISGKIAETFGKRAYPGGLTYSGHPLACAAAVATINVMAEEGVVENAANLGARVIEPGLRELAERHPSVGEVRGVGMFWALELVKDRETREPLVPYNAAGEANAPMAAFGAAAKANGLWPFINMNRTHVVPPCNVTEAEAKEGLAALDAALSVADEYTV",Km,[4],14.7 mM
